In general, IC50 refers to the concentration at which inhibition is half-maximal. Low readings indicate greater potency in that assay, high ones weaker potency in that assay.

The test deals with Btk (Homo sapiens (Human), UniProt Q06187). The test is described as follows: Bruton's Tyrosine Kinase (Btk) inhibition assay (FRET BTK). It is filed as biochemical.
Chain of Btk (Q06187 whole entry): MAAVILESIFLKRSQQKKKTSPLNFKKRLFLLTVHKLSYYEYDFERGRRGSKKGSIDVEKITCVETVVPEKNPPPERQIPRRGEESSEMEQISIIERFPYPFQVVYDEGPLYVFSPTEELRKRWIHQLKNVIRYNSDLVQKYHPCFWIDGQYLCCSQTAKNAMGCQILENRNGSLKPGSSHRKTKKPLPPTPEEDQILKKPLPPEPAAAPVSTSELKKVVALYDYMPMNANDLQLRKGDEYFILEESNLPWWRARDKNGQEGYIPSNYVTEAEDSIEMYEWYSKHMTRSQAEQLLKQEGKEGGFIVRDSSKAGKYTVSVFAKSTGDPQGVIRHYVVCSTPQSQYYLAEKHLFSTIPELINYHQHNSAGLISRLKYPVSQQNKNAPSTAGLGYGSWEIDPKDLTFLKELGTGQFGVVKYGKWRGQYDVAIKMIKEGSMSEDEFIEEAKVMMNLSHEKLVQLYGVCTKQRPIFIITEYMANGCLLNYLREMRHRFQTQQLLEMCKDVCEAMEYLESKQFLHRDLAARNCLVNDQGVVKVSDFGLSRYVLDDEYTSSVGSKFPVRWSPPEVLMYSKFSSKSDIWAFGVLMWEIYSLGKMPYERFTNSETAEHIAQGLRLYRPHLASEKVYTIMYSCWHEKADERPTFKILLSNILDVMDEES
`CCOc1ccc(-c2ccc3c(C(N)=O)cn(-c4cccc(-n5ncc6cc(C(C)(C)C)cc(F)c6c5=O)c4CO)c3n2)cn1` [Compound I-45, 1-[3-(6-tert-Butyl-8-fluoro-1-oxo-1H-phthalazin-2-yl)-2-hydroxymethyl-phenyl]-6-(6-ethoxy-pyridin-3-yl)-1H-pyrrolo[2,3-b]pyridine-3-carboxylic acid amide] yielded an IC50 of 11 nM. As for `CC(C)(C)c1cc(F)c2c(=O)n(-c3cccc(-n4cc(C(N)=O)cn4)c3CO)ncc2c1` [Compound I-41, 1-[3-(6-tert-Butyl-8-fluoro-1-oxo-1H-phthalazin-2-yl)-2-hydroxymethyl-phenyl]-1H-pyrazole-4-carboxylic acid amide], the half-maximal inhibitory concentration (IC50) turned out to be 268 nM. Under `CN1CCN(c2ccc3c(C(N)=O)cn(-c4cccc(-n5ncc6cc(C(C)(C)C)cc(F)c6c5=O)c4CO)c3n2)CC1` [Compound I-43, 1-[3-(6-tert-Butyl-8-fluoro-1-oxo-1H-phthalazin-2-yl)-2-hydroxymethyl-phenyl]-6-(4-methyl-piperazin-1-yl)-1H-pyrrolo[2,3-b]pyridine-3-carboxylic acid amide] stands 2.83 nM. Next, `CN1CCn2nc(Nc3nn(-c4cccc(-n5ncc6cc(C(C)(C)C)cc(F)c6c5=O)c4CO)cc3C(N)=O)cc2C1` [Compound I-25, 1-[3-(6-tert-Butyl-8-fluoro-1-oxo-1H-phthalazin-2-yl)-2-hydroxymethyl-phenyl]-3-(5-methyl-4,5,6,7-tetrahydro-pyrazolo[1,5-a]pyrazin-2-ylamino)-1H-pyrazole-4-carboxylic acid amide]: 0.09 nM; `CC(C)(C)c1cc(F)c2c(=O)n(-c3cccc(-n4cc(C(N)=O)c(Nc5ccc(Cl)cn5)n4)c3CO)ncc2c1` [Compound I-23, 1-[3-(6-tert-Butyl-8-fluoro-1-oxo-1H-phthalazin-2-yl)-2-hydroxymethyl-phenyl]-3-(5-chloro-pyridin-2-ylamino)-1H-pyrazole-4-carboxylic acid amide]: 0.29 nM; `CN(C)Cc1ccc(Nc2nn(-c3cccc(-n4ncc5cc(C(C)(C)C)ccc5c4=O)c3CO)cc2C(N)=O)nc1` [Compound I-55, 1-[3-(6-tert-Butyl-1-oxo-1H-phthalazin-2-yl)-2-hydroxymethyl-phenyl]-3-(5-dimethylaminomethyl-pyridin-2-ylamino)-1H-pyrazole-4-carboxylic acid amide]: 0.39 nM.

For the compound `CC(C)(C)c1cc(F)c2c(=O)n(-c3cccc(-n4ccc(C(N)=O)n4)c3CO)ncc2c1` [Compound I-40, 1-[3-(6-tert-Butyl-8-fluoro-1-oxo-1H-phthalazin-2-yl)-2-hydroxymethyl-phenyl]-1H-pyrazole-3-carboxylic acid amide], the IC50 is 333 nM.

As for `CC(C)(CN1CCC1)Oc1ccc(Nc2nn(-c3cccc(-n4ncc5cc(C(C)(C)C)cc(F)c5c4=O)c3CO)cc2C(N)=O)nc1` [Compound I-24, 3-[5-(2-Azetidin-1-yl-1,1-dimethyl-ethoxy)-pyridin-2-ylamino]-1-[3-(6-tert-butyl-8-fluoro-1-oxo-1H-phthalazin-2-yl)-2-hydroxymethyl-phenyl]-1H-pyrazole-4-carboxylic acid amide], it took 0.18 nM to reach half-maximal inhibition (IC50).

Turning to `CC(C)(C)c1cc(F)c2c(=O)n(-c3cccc(-n4cc(C(N)=O)c5ccc(Br)nc54)c3CO)ncc2c1` [Compound I-48, 6-Bromo-1-[3-(6-tert-butyl-8-fluoro-1-oxo-1H-phthalazin-2-yl)-2-hydroxymethyl-phenyl]-1H-pyrrolo[2,3-b]pyridine-3-carboxylic acid amide], it took 7.74 nM to reach half-maximal inhibition (IC50).

`CC(C)(C)c1cc(F)c2c(=O)n(-c3cccc(-n4cc(C(N)=O)c(Nc5ccc(S(C)(=O)=O)cn5)n4)c3CO)ncc2c1` [Compound I-38, 1-[3-(6-tert-Butyl-8-fluoro-1-oxo-1H-phthalazin-2-yl)-2-hydroxymethyl-phenyl]-3-(5-methanesulfonyl-pyridin-2-ylamino)-1H-pyrazole-4-carboxylic acid amide]: half-maximal inhibition (IC50) was put at 0.17 nM. Under `CC(C)(C)c1cc(F)c2c(=O)n(-c3cccc(-n4cc(C(N)=O)c(Nc5ccc(C#N)cn5)n4)c3CO)ncc2c1` [Compound I-39, 1-[3-(6-tert-Butyl-8-fluoro-1-oxo-1H-phthalazin-2-yl)-2-hydroxymethyl-phenyl]-3-(5-cyano-pyridin-2-ylamino)-1H-pyrazole-4-carboxylic acid amide] stands 0.18 nM. Next, `CC(C)(C)c1cc(F)c2c(=O)n(-c3cccc(-n4cc(C(N)=O)c(Nc5ccc(C(F)(F)F)cn5)n4)c3CO)ncc2c1` [Compound I-32, 1-[3-(6-tert-Butyl-8-fluoro-1-oxo-1H-phthalazin-2-yl)-2-hydroxymethyl-phenyl]-3-(5-trifluoromethyl-pyridin-2-ylamino)-1H-pyrazole-4-carboxylic acid amide]: 0.57 nM; `CC(C)(C)c1cc(F)c2c(=O)n(-c3cccc(-n4cc(C(N)=O)c(Nc5ccc(F)cn5)n4)c3CO)ncc2c1` [Compound I-30, 1-[3-(6-tert-Butyl-8-fluoro-1-oxo-1H-phthalazin-2-yl)-2-hydroxymethyl-phenyl]-3-(5-fluoro-pyridin-2-ylamino)-1H-pyrazole-4-carboxylic acid amide]: 0.24 nM. Next, `Cn1ccc(Nc2nn(-c3cccc(-n4ncc5cc(C(C)(C)C)cc(F)c5c4=O)c3CO)cc2C(N)=O)n1` [Compound I-28, 1-[3-(6-tert-Butyl-8-fluoro-1-oxo-1H-phthalazin-2-yl)-2-hydroxymethyl-phenyl]-3-(1-methyl-1H-pyrazol-3-ylamino)-1H-pyrazole-4-carboxylic acid amide]: 0.22 nM. For the compound `CC(C)(C)c1cc(F)c2c(=O)n(-c3cccc(-n4cc(C(N)=O)c5ccc(N6CCS(=O)(=O)CC6)nc54)c3CO)ncc2c1` [Compound I-50, 1-[3-(6-tert-Butyl-8-fluoro-1-oxo-1H-phthalazin-2-yl)-2-hydroxymethyl-phenyl]-6-(1,1-dioxo-1λ^6-thiomorpholin-4-yl)-1H-pyrrolo[2,3-b]pyridine-3-carboxylic acid amide], the concentration for half-maximal inhibition (IC50) amounted to 12.7 nM. Under `CC(C)(C)c1cc(F)c2c(=O)n(-c3cccc(-n4cc(C(N)=O)c5cncnc54)c3CO)ncc2c1` [Compound I-42, 7-[3-(6-tert-Butyl-8-fluoro-1-oxo-1H-phthalazin-2-yl)-2-hydroxymethyl-phenyl]-7H-pyrrolo[2,3-d]pyrimidine-5-carboxylic acid amide] stands 7.32 nM; under `CC(C)(C)c1ccc2c(=O)n(-c3cccc(-n4cc(C(N)=O)c(Nc5ccccn5)n4)c3CO)ncc2c1` [Compound I-54, 1-[3-(6-tert-Butyl-1-oxo-1H-phthalazin-2-yl)-2-hydroxymethyl-phenyl]-3-(pyridin-2-ylamino)-1H-pyrazole-4-carboxylic acid amide], 0.95 nM; under `CC(C)(C)c1cc(F)c2c(=O)n(-c3cccc(-n4cc(C(N)=O)c5ccc(-c6ccccc6F)nc54)c3CO)ncc2c1` [Compound I-46, 1-[3-(6-tert-Butyl-8-fluoro-1-oxo-1H-phthalazin-2-yl)-2-hydroxymethyl-phenyl]-6-(2-fluoro-phenyl)-1H-pyrrolo[2,3-b]pyridine-3-carboxylic acid amide], 14.3 nM. Turning to `Cc1ccc(Nc2nn(-c3cccc(-n4ncc5cc(C(C)(C)C)cc(F)c5c4=O)c3CO)cc2C(N)=O)nc1` [Compound I-33, 1-[3-(6-tert-Butyl-8-fluoro-1-oxo-1H-phthalazin-2-yl)-2-hydroxymethyl-phenyl]-3-(5-methyl-pyridin-2-ylamino)-1H-pyrazole-4-carboxylic acid amide], the concentration for half-maximal inhibition (IC50) was determined as 0.24 nM. Under `CC(=O)c1ccc(Nc2nn(-c3cccc(-n4ncc5cc(C(C)(C)C)ccc5c4=O)c3CO)cc2C(N)=O)cc1` [Compound I-53, 3-(4-Acetyl-phenylamino)-1-[3-(6-tert-butyl-1-oxo-1H-phthalazin-2-yl)-2-hydroxymethyl-phenyl]-1H-pyrazole-4-carboxylic acid amide] stands 0.12 nM. Next, `CN(C)CCNc1ccc2c(C(N)=O)cn(-c3cccc(-n4ncc5cc(C(C)(C)C)cc(F)c5c4=O)c3CO)c2n1` [Compound I-51, 1-[3-(6-tert-Butyl-8-fluoro-1-oxo-1H-phthalazin-2-yl)-2-hydroxymethyl-phenyl]-6-(2-dimethylamino-ethylamino)-1H-pyrrolo[2,3-b]pyridine-3-carboxylic acid amide]: 3560 nM; `CC(C)(C)c1cc(F)c2c(=O)n(-c3cccc(-n4cc(C(N)=O)c(Nc5ccccn5)n4)c3CO)ncc2c1` [Compound I-26, 1-[3-(6-tert-Butyl-8-fluoro-1-oxo-1H-phthalazin-2-yl)-2-hydroxymethyl-phenyl]-3-(pyridin-2-ylamino)-1H-pyrazole-4-carboxylic acid amide]: 0.36 nM.

On to `CC(C)(C)c1cc(F)c2c(=O)n(-c3cccc(-n4cc(C(N)=O)c5ccc(N6CCOCC6)nc54)c3CO)ncc2c1` [Compound I-44, 1-[3-(6-tert-Butyl-8-fluoro-1-oxo-1H-phthalazin-2-yl)-2-hydroxymethyl-phenyl]-6-morpholin-4-yl-1H-pyrrolo[2,3-b]pyridine-3-carboxylic acid amide], for which the IC50 was 10.3 nM. Next, `Cc1ccc(Nc2nn(-c3cccc(-n4ncc5cc(C(C)(C)C)ccc5c4=O)c3CO)cc2C(N)=O)nc1` [Compound I-37, 1-[3-(6-tert-Butyl-1-oxo-1H-phthalazin-2-yl)-2-hydroxymethyl-phenyl]-3-(5-methyl-pyridin-2-ylamino)-1H-pyrazole-4-carboxylic acid amide]: 1.13 nM. Next, `CC(C)(C)c1cc(F)c2c(=O)n(-c3cccc(-n4cc(C(N)=O)c(Nc5cnccn5)n4)c3CO)ncc2c1` [Compound I-29, 1-[3-(6-tert-Butyl-8-fluoro-1-oxo-1H-phthalazin-2-yl)-2-hydroxymethyl-phenyl]-3-(pyrazin-2-ylamino)-1H-pyrazole-4-carboxylic acid amide]: 0.43 nM. `CC(C)(C)c1cc(F)c2c(=O)n(-c3cccc(-n4cc(C(N)=O)cn4)c3)ncc2c1` [Compound I-56, 1-[3-(6-tert-Butyl-8-fluoro-1-oxo-1H-phthalazin-2-yl)-phenyl]-1H-pyrazole-4-carboxylic acid amide] gave an IC50 of 3700 nM.
